In the supplement of paper PMC10307832:

What was measured:
Test in all cases: relative viability (nuclei count vs DMSO), 5 days (fraction); higher = more cells survive
A-427 = tested on: A-427
In short: (§1)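 Lung cancer cell lines in 1536-well plates were dosed by pin tool the day after seeding, either with one drug alone or with a fixed anchor-drug dose plus five library-drug doses (not always all listed) in √10 steps. After 5 days, cells were fixed and their nuclei stained in one step (final 0.05% Triton X-100, 1% formaldehyde, 1 ug/ml Hoechst), then counted on 4× images. Relative viability is the nuclei count in treated wells divided by that in vehicle wells. Values are medians of duplicate plates.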

HCC-15 = tested on: HCC-15
In short: as §1

HCC-78 = tested on: HCC-78
In short: as §1

HOP-62 = tested on: HOP-62
In short: as §1

LC-2-ad = tested on: LC-2-ad
In short: as §1

LXF-289 = tested on: LXF-289
In short: as §1

NCI-H1734 = tested on: NCI-H1734
In short: as §1

NCI-H1755 = tested on: NCI-H1755
In short: as §1

NCI-H1792 = tested on: NCI-H1792
In short: as §1

NCI-H1915 = tested on: NCI-H1915
In short: as §1

NCI-H1975 = tested on: NCI-H1975
In short: as §1

NCI-H2126 = tested on: NCI-H2126
In short: as §1

NCI-H2228 = tested on: NCI-H2228
In short: as §1

NCI-H2342 = tested on: NCI-H2342
In short: as §1

NCI-H2347 = tested on: NCI-H2347
In short: as §1

NCI-H358 = tested on: NCI-H358
In short: as §1

NCI-H522 = tested on: NCI-H522
In short: as §1

NCI-H647 = tested on: NCI-H647
In short: as §1

PC-3 [JPC-3] = tested on: PC-3 [JPC-3]
In short: as §1

RERF-LC-KJ = tested on: RERF-LC-KJ
In short: as §1

SK-LU-1 = tested on: SK-LU-1
In short: as §1

SW 1573 = tested on: SW 1573
In short: as §1

COc1cc2nccc(Oc3ccc(NC(=O)Nc4cc(C)on4)c(Cl)c3)c2cc1OC [Tivozanib] + O=C(c1cc(Cc2n[nH]c(=O)c3ccccc23)ccc1F)N1CCN(C(=O)C2CC2)CC1 [Olaparib] (partner 8 µM)
relative viability (A-427; first compound 0.005 µM): 0.667 | relative viability (A-427; first compound 0.01581 µM): 0.747 | relative viability (A-427; first compound 0.05 µM): 0.774 | relative viability (A-427; first compound 0.1581 µM): 0.709 | relative viability (A-427; first compound 0.5 µM): 0.737 | relative viability (HCC-15; first compound 0.005 µM): 0.661 | relative viability (HCC-15; first compound 0.01581 µM): 0.709 | relative viability (HCC-15; first compound 0.05 µM): 0.755 | relative viability (HCC-15; first compound 0.1581 µM): 0.696 | relative viability (HCC-15; first compound 0.5 µM): 0.553 | relative viability (HCC-78; first compound 0.005 µM): 0.796 | relative viability (HCC-78; first compound 0.01581 µM): 0.746 | relative viability (HCC-78; first compound 0.05 µM): 0.732 | relative viability (HCC-78; first compound 0.1581 µM): 0.872 | relative viability (HCC-78; first compound 0.5 µM): 0.581 | relative viability (HOP-62; first compound 0.005 µM): 0.472 | relative viability (HOP-62; first compound 0.01581 µM): 0.405 | relative viability (HOP-62; first compound 0.05 µM): 0.324 | relative viability (HOP-62; first compound 0.1581 µM): 0.537 | relative viability (HOP-62; first compound 0.5 µM): 0.37 | relative viability (LC-2-ad; first compound 0.005 µM): 0.768 | relative viability (LC-2-ad; first compound 0.01581 µM): 0.793 | relative viability (LC-2-ad; first compound 0.05 µM): 0.787 | relative viability (LC-2-ad; first compound 0.1581 µM): 0.794 | relative viability (LC-2-ad; first compound 0.5 µM): 0.729 | relative viability (LXF-289; first compound 0.005 µM): 0.984 | relative viability (LXF-289; first compound 0.01581 µM): 0.994 | relative viability (LXF-289; first compound 0.05 µM): 1.09 | relative viability (LXF-289; first compound 0.1581 µM): 1.13 | relative viability (LXF-289; first compound 0.5 µM): 0.99 | relative viability (NCI-H1734; first compound 0.005 µM): 0.716 | relative viability (NCI-H1734; first compound 0.01581 µM): 0.6 | relative viability (NCI-H1734; first compound 0.05 µM): 0.743 | relative viability (NCI-H1734; first compound 0.1581 µM): 0.564 | relative viability (NCI-H1734; first compound 0.5 µM): 0.609 | relative viability (NCI-H1755; first compound 0.005 µM): 0.835 | relative viability (NCI-H1755; first compound 0.01581 µM): 0.829 | relative viability (NCI-H1755; first compound 0.05 µM): 0.936 | relative viability (NCI-H1755; first compound 0.1581 µM): 0.773 | relative viability (NCI-H1755; first compound 0.5 µM): 0.784 | relative viability (NCI-H1792; first compound 0.005 µM): 0.313 | relative viability (NCI-H1792; first compound 0.01581 µM): 0.46 | relative viability (NCI-H1792; first compound 0.05 µM): 0.516 | relative viability (NCI-H1792; first compound 0.5 µM): 0.294 | relative viability (NCI-H1915; first compound 0.005 µM): 0.255 | relative viability (NCI-H1915; first compound 0.01581 µM): 0.279 | relative viability (NCI-H1915; first compound 0.05 µM): 0.286 | relative viability (NCI-H1915; first compound 0.1581 µM): 0.291 | relative viability (NCI-H1915; first compound 0.5 µM): 0.206 | relative viability (NCI-H1975; first compound 0.005 µM): 0.753 | relative viability (NCI-H1975; first compound 0.01581 µM): 0.815 | relative viability (NCI-H1975; first compound 0.05 µM): 0.756 | relative viability (NCI-H1975; first compound 0.1581 µM): 0.76 | relative viability (NCI-H1975; first compound 0.5 µM): 0.662 | relative viability (NCI-H2126; first compound 0.005 µM): 0.954 | relative viability (NCI-H2126; first compound 0.01581 µM): 0.907 | relative viability (NCI-H2126; first compound 0.05 µM): 1 | relative viability (NCI-H2126; first compound 0.1581 µM): 0.845 | relative viability (NCI-H2126; first compound 0.5 µM): 0.899 | relative viability (NCI-H2228; first compound 0.005 µM): 0.669 | relative viability (NCI-H2228; first compound 0.01581 µM): 0.956 | relative viability (NCI-H2228; first compound 0.05 µM): 0.771 | relative viability (NCI-H2228; first compound 0.1581 µM): 0.644 | relative viability (NCI-H2228; first compound 0.5 µM): 0.723 | relative viability (NCI-H2342; first compound 0.005 µM): 0.433 | relative viability (NCI-H2342; first compound 0.01581 µM): 0.404 | relative viability (NCI-H2342; first compound 0.05 µM): 0.465 | relative viability (NCI-H2342; first compound 0.5 µM): 0.42 | relative viability (NCI-H2347; first compound 0.005 µM): 0.566 | relative viability (NCI-H2347; first compound 0.01581 µM): 0.65 | relative viability (NCI-H2347; first compound 0.05 µM): 0.608 | relative viability (NCI-H2347; first compound 0.1581 µM): 0.638 | relative viability (NCI-H2347; first compound 0.5 µM): 0.512 | relative viability (NCI-H358; first compound 0.005 µM): 0.522 | relative viability (NCI-H358; first compound 0.01581 µM): 0.612 | relative viability (NCI-H358; first compound 0.05 µM): 0.583 | relative viability (NCI-H358; first compound 0.1581 µM): 0.61 | relative viability (NCI-H358; first compound 0.5 µM): 0.542 | relative viability (NCI-H522; first compound 0.005 µM): 0.627 | relative viability (NCI-H522; first compound 0.01581 µM): 0.635 | relative viability (NCI-H522; first compound 0.05 µM): 0.651 | relative viability (NCI-H522; first compound 0.1581 µM): 0.591 | relative viability (NCI-H522; first compound 0.5 µM): 0.512 | relative viability (NCI-H647; first compound 0.005 µM): 0.505 | relative viability (NCI-H647; first compound 0.01581 µM): 0.529 | relative viability (NCI-H647; first compound 0.05 µM): 0.63 | relative viability (NCI-H647; first compound 0.1581 µM): 0.56 | relative viability (NCI-H647; first compound 0.5 µM): 0.437 | relative viability (PC-3 [JPC-3]; first compound 0.01581 µM): 1.22 | relative viability (PC-3 [JPC-3]; first compound 0.05 µM): 1.11 | relative viability (PC-3 [JPC-3]; first compound 0.1581 µM): 1.15 | relative viability (PC-3 [JPC-3]; first compound 0.5 µM): 1.09 | relative viability (RERF-LC-KJ; first compound 0.005 µM): 0.97 | relative viability (RERF-LC-KJ; first compound 0.01581 µM): 0.954 | relative viability (RERF-LC-KJ; first compound 0.05 µM): 0.974 | relative viability (RERF-LC-KJ; first compound 0.1581 µM): 0.929 | relative viability (RERF-LC-KJ; first compound 0.5 µM): 0.875 | relative viability (SK-LU-1; first compound 0.005 µM): 0.465 | relative viability (SK-LU-1; first compound 0.01581 µM): 0.474 | relative viability (SK-LU-1; first compound 0.05 µM): 0.528 | relative viability (SK-LU-1; first compound 0.1581 µM): 0.384 | relative viability (SK-LU-1; first compound 0.5 µM): 0.464 | relative viability (SW 1573; first compound 0.005 µM): 0.443 | relative viability (SW 1573; first compound 0.01581 µM): 0.416 | relative viability (SW 1573; first compound 0.05 µM): 0.434 | relative viability (SW 1573; first compound 0.1581 µM): 0.506 | relative viability (SW 1573; first compound 0.5 µM): 0.446
